Measured values as given in patent US8980843B2, “Leptin agonist and methods of use” (Temple University—of the Commonwealth System of Higher …, priority 2009, dated 2015).
Entries after “also recorded” stand apart in the source; their conditions may differ. Non-standard residues stand in square brackets, D forms with d. Residues, ends and D or L forms follow the SMILES beside them. *: point of attachment. αGalNAc = CC(=O)N[C@@H]1[C@@H](O)[C@@H](O)[C@@H](CO)O[C@@H]1*; Tyr(3,5-I2) = N[C@@H](Cc1cc(I)c(O)c(I)c1)C(=O)O; Acp = not defined here; Ahx = NCCCCCC(=O)O

Tests used:
[1] = system: ObR-positive LN229 glioblastoma cells; assay: Cell proliferation assay, ObR-positive LN229 glioblastoma cells; format: cell-based; settings: for Selectivity (EC/IC): LN229 cells
Protocol: (§1) LN18 and LN229 cells naturally expressing ObR were purchased from ATCC and were cultured in DMEM low glucose plus 5% fetal bovine serum.
(§2) Seventy percent confluent cultures of LN18 and LN229 cells were synchronized in serum-free medium (DMEM plus 10 μM FeSO4 and 0.5% bovine serum albumin—BSA) for 48 hours and then treated with leptin and/or compounds (different doses) for 3 days. Cell numbers before and after treatment were determined by direct counting the cells with trypan blue exclusion. All assays were done in triplicate and repeated 3-6 times. The cell numbers were expressed as means±standard error. The results were statistically evaluated by Student's t-test and analysis of variance (ANOVA). Values of p<0.05 were considered statistically significant.
(§3) Stimulation of ObR-positive cells by compound (1) was evaluated. A true agonist of an ObR-positive receptor should stimulate the growth of ObR-positive cells when added alone and should not antagonize the actions of leptin in the same cells. In order to determine whether compound (1) is a true agonist, the ObR-positive, CNS-resident glioblastoma cell lines LN229 and LN18 were used. EC values for this peptide were measured without exogenous leptin present, and IC values with 12 nM leptin added.

[2] = system: ObR-positive LN18 glioblastoma cells; assay: Cell proliferation assay, LN18 glioblastoma cells; format: cell-based; settings: data not shown
Protocol: as §1, §2, §3

[3] = In vivo biodistribution of fluorescent-labelled peptide
Protocol: Compound (2), labeled with fluorescent dye Alexa Fluor® 680, was prepared and purified by reverse phase HPLC. 5 μg of the compound were injected intraperitoneally into anesthetized female Balb/c mice. While sleeping, the animals were placed into the fluorescence microscope chamber. Fluorescence exposure pictures were taken with a Kodak 4000MM camera set to 695 nm emission wavelength at five minute intervals afterwards for 80 min.

[4] = system: high-fat induced obesity (DIO) C57BL/6 mice; assay: Mouse model of obesity and leptin resistance (DIO mice); format: in vivo; settings: for Blood glucose level / Blood total cholesterol level: DIO mice; for resistance to treatment (weight curves): 10-day ip treatment, leptin 0.1, compound (1) 0.02 and 0.1 mg/kg/day
Protocol: Animals were sacrificed by CO2 inhalation. Livers were removed and fixed in 10% buffered formaldehyde, pH, 7.4. After 24 hour fixation, liver specimens were dehydrated in graded ethanol and placed into methyl benzoate for an hour. The specimens were then transferred to xylene and embedded into paraffin. 6-μm thick paraffin sections were deparaffinized and stained with H&E. Photomicrographs were taken by using a Zeiss light microscope equipped with a CCD camera. The final magnification of the pictures was 200-fold.
An animal model for leptin resistance was used to evaluate compounds of the invention. In this model, based on high-fat induced obesity (DIO) of normal mice, the animals are fed with a diet containing 40-60% fat and become resistant to leptin treatment (Steinberg et al., 2006, Endocrinology 147: 3906-3914; Nakagawa et al., 2003, J. Obesity 27: 557-565). Normal C57BL/6 mice were fed with regular 6% lab chow until 3 weeks of age when their diet was switched to peanuts only. Peanuts have 47-50% dry fat content, and are considered a typical high-fat food (Isleib et al., 2004, J. Agric. Food Chem. 52: 3165-3168). DIO mice develop peripheral leptin resistance after 16 days of high-fat diet (van Heek et al., 1997, J. Clin. Invest. 99:3 85-390). In this study, the mice were fed peanuts for 5 weeks. The animals had access to water and peanuts ad libitum. After 3 weeks (total age 6 weeks) a group of 6 mice remained untreated, and 4 groups received leptin or a compound of the invention.
Mice were weighed daily and received a daily single dose (around noon time) intraperitoneally with the following scheme: Group 1 (6 mice: 3 males, 3 females) —physiological solution (control); Group 2 (6 mice: 3 males, 3 females) —0.1 mg/kg/day leptin; Group 3 (4 mice: 2 males, 2 females) —0.02 mg/kg/day compound of the invention; Group 4 (6 mice: 3 males, 3 females) —0.1 mg/kg/day compound of the invention; and Group 5 (4 mice: 2 males, 2 females) —0.5 mg/kg/day compound of the invention. After 10 days of treatment, one male and one female mouse from each group were sacrificed and bled, and their livers, spleens, kidneys and brains were removed for histology and toxicity analysis.
The DIO mice were allowed to eat peanut ad libitum. They were weighed daily and received the following intraperitoneal treatment at noontime: Group 1 (6 mice: 3 males, 3 females) —physiological solution (control); Group 2 (6 mice: 3 males, 3 females) —0.1 mg/kg/day of leptin; Group 3 (4 mice: 2 males, 2 females) —0.02 mg/kg/day of compound (1); Group 4 (6 mice: 3 males, 3 females) —0.1 mg/kg/day of compound (1); and Group 5 (4 mice: 2 males, 2 females) —0.5 mg/kg/day of compound (1).

obese C57BL/6 mice = assay: Pregnancy test after treatment of obese mice; format: in vivo; settings: for Number of pregnancy incidents: observed 5 weeks
Description: The remaining mice after the treatment with leptin or a compound of the invention were returned to 6% fat lab chow diet, and locked into cages in couples. […] The two successful litters were examined for growth and behavioral patterns.
Upon cessation of the weight gain assay and laboratory work, the remaining mice were returned to 6% fat lab chow diet, and locked into cages in couples to investigate whether treatment with leptin or compound (1) improved their fertility rates. […] Neither of two couples of control, untreated mice produced litters, as expected (Table 3). […] Leptin treatment somewhat improved the situation because one of the two couples produced a litter. As for the couple of mice treated with the 0.5 mg/kg/day dose of compound (1), the female became pregnant immediately and delivered 6 healthy pups in less than a month (Table 3).

C57BL/6 mice = assay: Short chronic toxicity study in peanut-fed mice; format: in vivo; settings: 1.5 or 4.0 mg/kg ip once daily, 4 days
Protocol: Eight C57BL/6 mice, 6 weeks of age (8 mice: 4 males, 4 females), were fed with peanut diet for 6 days. They were split in three different groups. The first group was left untreated (4 mice: 2 males, 2 females). The second group received a compound of the invention once daily intraperitoneally at 1.5 mg/kg for 4 days (2 mice: 1 male, 1 female). The third group received a compound of the invention once daily intraperitoneally at 4.0 mg/kg (2 mice: 1 male, 1 female) for 4 days. The animals were inspected daily for signs of disease or discomfort. After 5 days of treatment, the mice were weighed, sacrificed with CO2 inhalation, and bled for laboratory blood analysis. Their brains, livers, kidneys and spleens were inspected, removed and weighed.
Eight mice (4 males, 4 females) were fed with peanut diet for 6 days. After that, they were left untreated (2 males, 2 females), or received compound (1) once daily at 1.5 mg/kg (1 male, 1 female) or 4.0 mg/kg (1 male, 1 female) for 4 days.

normal F344 male rats = assay: Rat appetite control, intranasal administration to normal rats; format: in vivo; settings: 0.1 mg/kg/day intranasal
Protocol: Eight 6-weeks-old male […] rats were kept on regular laboratory diet. At noon time for 10 days, the animals were weighed, turned upside down, and received 0.1 mg/kg/day of a compound of the invention ([…]) or physiological solution ([…]) dripped in 10 μL volume into their nose. On day 15, the rats were weighed and sacrificed (cervical dislocation), and bled for laboratory blood analysis. Their brains, livers, kidneys and spleens were removed and weighed.
Rats were allowed to lab chow ad libitum, and treatment lasted for 10 days with 0.1 mg/kg/day single dose of compound (1) dropped into the nose in 10 μL salt solution. Untreated control animals were administered 10 μL physiological salt solution. Results are represented in FIG. 5.

[5] = 5 μg intraperitoneally, fluorescence imaging

Compound: CC(=O)N[C@H]1[C@@H](O[C@H](C)[C@H](NC(=O)[C@H](CO)NC(=O)[C@@H](N)Cc2cc(I)c(O)c(I)c2)C(=O)N[C@@H](CCC(=O)O)C(=O)N[C@H](C(=O)N[C@H](C(=O)N[C@@H](C)C(=O)N[C@@H](CC(C)C)C(=O)N[C@@H](CO)C(=O)N[C@@H](CCCNC(=N)N)C(=O)NCCCCCC(N)=O)C(C)C)C(C)C)O[C@H](CO)[C@H](O)[C@@H]1O [compound (1), Tyr(I2)-Ser-Thr(α-GalNAc)-Glu-Val-Val-Ala-Leu-Ser-Arg-AcpNH2] (H-[Tyr(3,5-I2)]ST(αGalNAc)EVVALSR[Ahx]-NH2; N-terminus assumed)
- Selectivity (EC/IC) [1]: >100
- Selectivity (EC/IC) ([1]; listed as Compound (1)): greater than 100
- IC100 ([1]; LN229 proliferation, with 12 nM leptin added): >100 nM
- EC100 ([1]; LN229 proliferation, without exogenous leptin, 3 days): <1 nM
- Antagonistic properties (ICs) to leptin-induced LN229 stimulation ([1]; with 12 nM leptin added): ≥ 100 nM
- agonistic activity [2]: picomolar agonistic activities
- BBB-penetrating ability, by inference from compound (2) ([3]; inferred from labelled analogue): good BBB-penetrating ability
- weight reduction relative to untreated controls at end of treatment ([4]; 0.02 mg/kg/day ip, 10 days): 0.5 g
- Blood glucose level ([4]; 0.02 mg/kg/day ip): 8.45 mM/L
- Blood total cholesterol level ([4]; 0.02 mg/kg/day ip): 2.51 mM/L
- weight reduction relative to untreated controls at end of treatment ([4]; 0.1 mg/kg/day ip, 10 days): 0.6 g
- Blood glucose level ([4]; 0.1 mg/kg/day ip): 8.55 mM/L
- Blood total cholesterol level ([4]; 0.1 mg/kg/day ip): 2.77 mM/L
- blood cholesterol level reduction ([4]; 0.5 mg/kg/day ip): 9%
- glucose level reduction ([4]; 0.5 mg/kg/day ip): 17%
- liver fat cell content (histology) ([4]; 0.5 mg/kg/day ip): fatty cytoplasm could no longer be observed; also recorded: fat cells were completely eliminated from the liver
- net total body weight loss ([4]; 0.5 mg/kg/day ip, 10 days): 6.5%
- relative weight loss compared to untreated mice ([4]; 0.5 mg/kg/day ip, 10 days): 1.3 g
- Blood glucose level ([4]; 0.5 mg/kg/day ip): 7.06 mM/L
- Blood total cholesterol level ([4]; 0.5 mg/kg/day ip): 2.08 mM/L
- liver fat cell content, dose dependence ([4]; 0.02, 0.1 and 0.5 mg/kg/day ip): lowered the fatty cell content of the liver in a dose-dependent manner
- resistance to treatment (weight curves) [4]: lack of resistance to peptide treatment
- Number of pregnancy incidents (obese C57BL/6 mice; after 0.02 mg/kg/day ip): 0
- Number of pregnancy incidents (obese C57BL/6 mice; after 0.1 mg/kg/day ip): 0
- healthy pups delivered (obese C57BL/6 mice; after 0.5 mg/kg/day ip, one couple): 6
- Number of pregnancy incidents (obese C57BL/6 mice; after 0.5 mg/kg/day ip): 1
- fertility of couples (obese C57BL/6 mice; low-dose regimen (0.02 and 0.1 mg/kg/day)): remained infertile
- average organ weight, brain (C57BL/6 mice): 0.3 g
- average organ weight, kidney (females) (C57BL/6 mice): 0.20 g
- average organ weight, kidney (males) (C57BL/6 mice): 0.25 g
- average organ weight, liver (C57BL/6 mice): 1.06 g
- average organ weight, spleen (C57BL/6 mice): 0.09 g
- gross necropsy (C57BL/6 mice): no signs of toxicity
- weight change during compound addition (C57BL/6 mice): Three of the 4 treated mice lost weight
- weight growth less than untreated controls (normal F344 male rats; 10 days, day 11): 10.8 g
- net total body weight (tbw) loss (normal F344 male rats; 10 days, day 14): 6.8%
- weight growth less than untreated controls (normal F344 male rats; 10 days, day 14): 11.7 g
- average total blood cholesterol level (normal F344 male rats; at sacrifice): 1.28 mmol/L
- organ weight, brain (normal F344 male rats; at sacrifice): 1.2 g
- organ weight, kidney (normal F344 male rats; at sacrifice): 1.5 g
- organ weight, liver (normal F344 male rats; at sacrifice): 6.9 g
- organ weight, spleen (normal F344 male rats; at sacrifice): 0.42 g

Compound: Alexa680-Tyr(I2)-Ser-Thr(α-GalNAc)-Glu-Val-Val-Ala-Leu-Ser-Arg-AcpNH2 ({Alexa680-Tyr(3,5-I2)-Ser-Thr(α-GalNAc)}-EVVALSR-{Acp-NH2}; reading uncertain) [compound (2)]
- BBB-penetrating ability [3, 5]: good BBB-penetrating ability
- distribution into peptide elimination organs (kidneys, liver, spleen) [3, 5]: distributed into the usual peptide elimination organs within one hour from administration
- presence in tail, limbs and brain [3, 5]: also found in the tail, the limbs and the brain

Compound: leptin: Human leptin purchased from R&D Systems; 146-amino acid neurohormone, native ObR ligand
- liver fat cell content (histology) ([4]; 0.1 mg/kg/day ip): acinoperipheral regions of the liver still contained fat cells
- weight reduction relative to untreated controls at end of treatment ([4]; 0.1 mg/kg/day ip, 10 days): 0.3 g
- Blood glucose level ([4]; 0.1 mg/kg/day ip): 5.22 mM/L
- Blood total cholesterol level ([4]; 0.1 mg/kg/day ip): 2.47 mM/L
- resistance to treatment (weight curves) [4]: fast acquisition of resistance
- Number of pregnancy incidents (obese C57BL/6 mice; after 0.1 mg/kg/day ip): 1
